Results taken from US20210238169A1, “PROCESS FOR PREPARING A COMPOUND OF FORMULA (XIII)” (PULMOCIDE LIMITED, priority 2014, published 2021).
Values after ≈ are worked out from the molar mass of the structure shown. Like-named read-outs stand apart in the source and are kept apart here.

Key:
Aspergillus fumigatus = Aspergillus fumigatus infection of BEAS2B bronchial epithelial cells (GM in supernatant); assay type: cell-based
Description: BEAS2B cells were seeded in 96-well plates (100 μL; 30,000 cells/well; Catalogue No 3596, Sigma Aldrich, Dorset, UK) in 10% FBS RPMI-1640 and were then incubated (37° C., 5% CO2) for one day before experimentation. Test compounds (0.5 μL DMSO solution) or vehicle (DMSO) were added to each well to give a final DMSO concentration of 0.5%. BEAS2B cells were incubated with test compounds for 1 hr (35° C., 5% CO2) before infection with Aspergillus fumigatus (20 μL; Public Health England) conidia suspension (0.5×10^5/ml in 10% FBS RPMI-1640). The plate was incubated for 24 hr (35° C., 5% CO2). Supernatant (50 μL) was collected and transferred to a PCR plate (Catalogue No L1402-9700, Starlab, Milton Keynes, UK), which was frozen (−20° C.) until use. After thawing, supernatant (5 μL) was diluted 1:20 by adding R7-PBS solution (95 μL; 1:4 R7 to PBS; Bio-Rad Laboratories, Redmond, Wash., USA). GM levels in these samples (50 μL) were measured using Platelia GM-EIA kits (Bio-Rad Laboratories, Redmond, Wash., USA). The percentage inhibition for each well was calculated and the IC50 value was calculated from the concentration-response curve generated for each test compound.

[1] = Cell viability: resazurin assay; assay type: cell-based, human; details: human, n = 1-5
Description: BEAS2B cells were seeded in 384-well plates (100 μL; 3000/well/; BD Falcon, Catalogue No 353962) in RPMI-LHC8 (RPMI-1640 and LHC8 media combined in equal proportions) one day before experimentation. For cell-free control wells, RPMI-LHC8 (100 μL) was added. Test compounds (0.5 μL of a DMSO solution) were added to give a final DMSO concentration of 0.5% using an Integra VIAFLO 96 (Integra, Zizers, Switzerland). BEAS2B cells were incubated with each test compound for 1 day (37° C./5% CO2 in RPMI-LHC8). After addition of resazurin stock solution (5 μL, 0.04%) the plates were incubated for a further 4 hr (37° C./5% CO2). The fluorescence of each well at 545 nm (excitation) and 590 nm (emission) was determined using a multi-scanner (Clariostar: BMG Labtech). The percentage loss of cell viability was calculated for each well relative to vehicle (0.5% DMSO) treatment. Where appropriate, a CC50 value was calculated from the concentration-response curve generated from the concentration-response curve for each test compound.

Aspergillus flavus = test: Fungus panel screening, CLSI broth microdilution; assay type: cell-based; details: strain ATCC204304, visual inspection (CLSI); for MIC: read-out: MIC100
Description: (§1) Fungus panel screening was conducted by Eurofins Panlabs Inc. The MIC and MIC50 values of the test articles were determined following the guidelines of the Clinical and Laboratory Standards Institute, broth microdilution methods for yeast (CLSI M27-A2), (CLSI, 2002) and for filamentous fungi (CLSI M38-A), (CLSI, 2008).

Cryptococcus neoformans = test: Fungus panel screening, CLSI broth microdilution; assay type: cell-based; details: strain ATCC24067, visual inspection (CLSI); for MIC: read-out: MIC100
Description: as §1

[2] = system: Aspergillus fumigatus (ATCC 13073); test: Body weight loss of Aspergillus fumigatus infected, immunocompromised, neutropenic mice; assay type: in vivo; details: 0.4 mg/mL intra-nasally, prophylactic; for Body weight loss caused by infection with A. fumigatus: % weight loss compared with day 0
Description: Aspergillus fumigatus (ATCC 13073 [strain: NIH 5233], American Type Culture Collection, Manassas, Va., USA) was grown on Malt agar (Nissui Pharmaceutical, Tokyo, Japan) plates for 6-7 days at RT (24±1° C.). Spores were aseptically dislodged from the agar plates and suspended in sterile distilled water with 0.05% Tween 80 and 0.1% agar. On the day of infection, spore counts were assessed by haemocytometer and the inoculum was adjusted to obtain a concentration of 1.67×10^8 spores mL^−1 of physiological saline.
On day 0, animals were infected with the spore suspension (35 μL intra-nasally).
Test compounds were administered intra-nasally (35 μL of a suspension of 0.08-2.00 mg/mL in physiological saline) once daily, 30 min before infection on day 0 and then on days 1, 2 and 3 (representing prophylactic treatment) or on days 1, 2 and 3 only (representing therapeutic treatment). For extended prophylactic treatment, test compounds (35 μL of a suspension of 0.0032 or 0.016 mg/mL in physiological saline) were administered intra-nasally once daily for seven days; then 30 min before infection on day 0, and thereafter, either on days 1, 2 and 3 after infection, or on day 0 only. The effects of these treatment paradigms were compared with those obtained when treatment was restricted to one day and 30 min before inoculation and then on days 1, 2 and 3 post infection; or reduced still further to one day and 30 min before infection only.

[3] = system: Aspergillus fumigatus (ATCC 13073); test: Survival of severely immunocompromised, neutropenic mice infected with Aspergillus fumigatus, monotherapy or combination; assay type: in vivo; details: Compound (I) 0.4 mg/mL (in), Posaconazole 1 mg/kg (po), once daily days 1-6
Description: On day 0, animals were infected intranasally with 35 μL of the spore suspension (1.67×10^8 spores/mL in physiological saline) of Aspergillus fumigatus (ATCC 13073 [strain: NIH 5233]). Compound (I) prepared as a suspension in isotonic saline (0.4 mg/mL) was dosed once daily by an intra-nasal injection (35 μL/mouse) on days 1-6 after infection. Posaconazole (1 mg/kg) was given orally once daily on days 1-6 after infection. Body weight and survival were monitored daily up to day 7.

Structure (SMILES) | MIC50 (Aspergillus fumigatus) | CC50 at 1 day ([1]; BEAS2B cells) | MIC50 (Aspergillus flavus) | MIC (Aspergillus flavus) | MIC50 (Cryptococcus neoformans) | MIC (Cryptococcus neoformans) | % Inhibition of weight loss ([2]; Day 1) | Body weight loss caused by infection with A. fumigatus ([2]; Day 1) | % Inhibition of weight loss ([2]; Day 2) | Body weight loss caused by infection with A. fumigatus ([2]; Day 2) | % Inhibition of weight loss ([2]; Day 3) | Body weight loss caused by infection with A. fumigatus ([2]; Day 3) | Median survival [3] | No. of survivors on day 7 [3] | survivors on day 7 (%) [3] | CC50 at 1 day ([1]; read-out: BEAS2B Cell Viability CC50)
Cc1cc(N2CCN(c3ccc(C(=O)Nc4ccc(F)cc4)cc3)CC2)ccc1OC[C@@H]1CO[C@@](Cn2cncn2)(c2ccc(F)cc2F)C1 [Compound (I), 4-(4-(4-(((3R,5R)-5-((1H-1,2,4-triazol-1-yl)methyl)-5-(2,4-difluorophenyl)tetrahydrofuran-3-yl)methoxy)-3-methylphenyl)piperazin-1-yl)-N-(4-fluorophenyl)benzamide] | 5.43 nM (≈ 3.71 ng/mL) | > 12.2 µM | 1 µg/mL (≈ 1.46 µM) | > 8 µg/mL | 0.008 µg/mL (≈ 0.0117 µM) | 1 µg/mL (≈ 1.46 µM) | 34% | 6.1 ± 1.8% | 39% | 8.7 ± 2.5% | 42% | 11.1 ± 5.6% | 6 days | 0/6 | 0% | 
CC[C@@H]([C@H](C)O)n1ncn(-c2ccc(N3CCN(c4ccc(OC[C@@H]5CO[C@@](Cn6cncn6)(c6ccc(F)cc6F)C5)cc4)CC3)cc2)c1=O [Posaconazole] | 4.48 nM (≈ 3.14 ng/mL) | > 14.3 µM | 0.063 µg/mL (≈ 0.0899 µM) | 0.13 µg/mL (≈ 0.186 µM) | 0.016 µg/mL (≈ 0.0228 µM) | 0.25 µg/mL (≈ 0.357 µM) | 21% | 7.3 ± 2.0% | 6% | 13.4 ± 1.9% | 6% | 18.1 ± 2.0% | 6.5 days | 0/6 | 0% | 
C[C@@H](c1ncncc1F)[C@](O)(Cn1cncn1)c1ccc(F)cc1F [Voriconazole] | 154 nM (≈ 53.8 ng/mL) |  |  |  |  |  |  |  |  |  |  |  |  |  |  | > 28.6 µM
